# Tests used:
# Type in all cases: cell-based, human
# [1] = test system: glioblastoma SNB-75 cells; experiment: Cell cycle analysis, PI flow cytometry; conditions: SNB-75, after 24 h at IC50 concentration
# Procedure: (§1) Melanoma MDA -MB-435 and glioblastoma SNB-75 cells were treated with the quinazolinone 5c for 24 h (at its IC50 concentration), and then cells were washed twice with ice - cold phosphate buffered saline (PBS). Consequently, the treated cells were collected by centrifugation, fixed in ice -cold 70% (v/v) ethanol, washed with PBS, re -suspended with 100 μg/mL RNase, stained with 40 μg/mL propidium iodide (PI), and analyzed by flow cytometry using FACS Calibur (Becton Dickinson, BD, Franklin Lakes, NJ, USA). The cell cycle distributions were calculated using Cell Quest software 5.1 (Becton Dickinson). […]
# [2] = test system: melanoma MDA-MB-435 cells; experiment: Cell cycle analysis, PI flow cytometry; conditions: MDA-MB-435, after 24 h at IC50 concentration
# Procedure: 10% of the culture medium volume. Cultures were returned to incubator for 2–4 h. After the incubation period, cultures were removed from incubator and the resulting formazan crystals were dissolved by adding an amount of MTT solubilization solution [M-8910] equal to the original culture medium volume. Dissolution is enhanced by gentle mixing in a gyratory shaker. Then the absorbance is measured spectrophotometrically at a wavelength of 450 nm. The absorbance of multiwell plates was measured at 690 nm and subtracted from the 450 nm measurement. IC50 values (concentration of sample causing 50% loss of cell proliferation of the vehicle control) were calculated using non-linear regression curve fitting of the dose response plots on GraphPad Prism 7.0 software. Data presented are the results of at least three independent experiments. The results of these studies are presented as mean IC50 (μM) ± standard deviation (SD).
# as §1
# [3] = test system: melanoma MDA-MB-435 cells; experiment: Apoptosis determination, Annexin V-FITC/PI; conditions: MDA-MB-435, 24 h at IC50 concentration
# Procedure: (§2) The apoptotic activity of quinazolinone 5c in melanoma MDA-MB-435 and glioblastoma SNB-75 cell lines was further studied using Annexin V-FITC assay. […]
# (§3) 4. Apoptosis determination
# (§4) Annexin V fluorescein isothiocyanate (FITC)/PI apoptosis detection kit (BD Biosciences) was used according to the manufacturer’s instructions to measure the apoptotic activity of compound 5c. Melanoma MDA -MB-435 and glioblastoma SNB -75 cells were cultured to a monolayer then treated with the quinazolinone 5c at its IC50 concentration. The cells then were collected by trypsinisation and 0.5×10^6 cells were washed twice with PBS and stained with 5 µL Annexin V-FITC and 5 µL PI in 1Xbinding buffe r for 15 min. at room temperature in the dark.
# (§5) Analyses were performed using FACS Calibur flow cytometer (BD Biosciences, San Jose, CA).
# [4] = test system: glioblastoma SNB-75 cells; experiment: Apoptosis determination, Annexin V-FITC/PI; conditions: SNB-75, 24 h at IC50 concentration
# Procedure: as §2, §3, §4, §5
smiles,measurement,setting,value
"O=c1c2ccccc2nc(COc2ccccc2)n1NS(=O)(=O)c1ccc(Cl)cc1 [Compound 5c, 4-chloro-N-(4-oxo-2-(phenoxymethyl)quinazolin-3(4H)-yl)benzenesulfonamide]",%G0-G1,[1],39.53%
same,%G2/M,[1],31.78%
same,%Pre-G1,[1],44.22%
same,%S,[1],28.69%
same,Comment (cell cycle),[1],Pre G1 apoptosis and cell growth arrest at G2/M
same,%G0-G1,[2],55.29%
same,%G2/M,[2],3.74%
same,%Pre-G1,[2],28.65%
same,%S,[2],40.97%
same,Comment (cell cycle),[2],Pre G1 apoptosis and cell growth arrest at S
same,% Necrosis,[3],13.47%
same,%Apoptosis Early,[3],4.53%
same,%Apoptosis Late,[3],10.65%
same,%Apoptosis Total,[3],28.65%
same,% Necrosis,[4],8.61%
same,%Apoptosis Early,[4],2.65%
same,%Apoptosis Late,[4],32.96%
same,%Apoptosis Total,[4],44.22%

# Source: article PMC8843100, “Development of newly synthesised quinazolinone-based CDK2 inhibitors with potent efficacy against melanoma” (Journal of Enzyme Inhibition and Medicinal Chemistry, 2022)
